Measurements from paper PMC8460738, “Berberine is an insulin secretagogue targeting the KCNH6 potassium channel” (Nature Communications, 2021).

Biological target: T1, KCNH6 potassium channel (Homo sapiens, UniProt Q9H252)
T1 construct: human KCNH6 (WT cDNA) transfected in HEK293T cells; FLAG-tagged for pull-down
T1 sequence (Q9H252 1-958): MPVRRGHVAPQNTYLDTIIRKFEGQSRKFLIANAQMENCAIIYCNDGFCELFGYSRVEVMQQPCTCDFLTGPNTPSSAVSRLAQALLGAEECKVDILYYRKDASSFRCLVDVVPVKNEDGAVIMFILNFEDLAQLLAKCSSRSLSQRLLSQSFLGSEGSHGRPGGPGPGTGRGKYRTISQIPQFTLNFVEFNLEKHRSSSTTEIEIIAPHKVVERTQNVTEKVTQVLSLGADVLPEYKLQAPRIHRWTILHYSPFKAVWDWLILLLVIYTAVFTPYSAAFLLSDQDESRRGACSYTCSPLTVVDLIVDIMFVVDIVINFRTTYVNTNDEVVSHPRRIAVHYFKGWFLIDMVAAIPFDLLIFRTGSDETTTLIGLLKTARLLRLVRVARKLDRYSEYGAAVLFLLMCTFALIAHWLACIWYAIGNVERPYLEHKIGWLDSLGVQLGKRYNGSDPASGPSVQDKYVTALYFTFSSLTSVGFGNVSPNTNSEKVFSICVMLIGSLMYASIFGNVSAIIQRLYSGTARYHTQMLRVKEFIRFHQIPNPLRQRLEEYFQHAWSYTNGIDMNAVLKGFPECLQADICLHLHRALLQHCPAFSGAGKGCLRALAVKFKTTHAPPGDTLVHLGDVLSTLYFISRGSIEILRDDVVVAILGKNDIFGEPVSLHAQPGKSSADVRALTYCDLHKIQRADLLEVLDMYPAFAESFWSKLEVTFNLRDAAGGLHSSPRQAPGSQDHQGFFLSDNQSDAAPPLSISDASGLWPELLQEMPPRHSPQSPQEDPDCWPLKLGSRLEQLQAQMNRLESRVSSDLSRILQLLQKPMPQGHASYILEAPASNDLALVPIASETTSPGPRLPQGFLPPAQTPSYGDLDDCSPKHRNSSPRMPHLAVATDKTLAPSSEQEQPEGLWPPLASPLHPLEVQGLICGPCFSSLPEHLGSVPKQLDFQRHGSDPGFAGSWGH
Assay: whole-cell patch clamp of KCNH6-transfected HEK293T cells; affinity-bead pull-down from cell extract competed by free BBR
Assay type: cell-based

## COc1ccc2cc3[n+](cc2c1OC)CCc1cc2c(cc1-3)OCO2 [BBR, berberine]
  IC50: 1010 ± 40 nM
